Data on five molecules can be found in US20220387398A1, “IMMUNE TO[…] AND POTENTIATORS” (priority 2019, published 2022).

In series [1] the test system is ITE degradation in mouse plasma. Nature of the series: Inhibition of ITE degradation in mouse plasma by esterase inhibitors. It is filed as biochemical. To be noted: for inhibition of ITE degradation (in words, rank): mouse plasma, 1 millimolar benzil, BNPP and tacrine, 0.5 millimolar rivastigmine, pre-incubated 60 minutes. An excerpt:
Each inhibitor provided at least some protection from degradation.
FIGS. 3-7 show a mass balance analysis of ITE+ITC in the presence of each inhibitor.

The conditions of series [2]: mouse.
Procedure: Levels of ITE and ITC in mouse plasma were determined by liquid chromatography-mass spectrometry (LC-MS). Standard curves were produced by serial dilution of ITE and ITE and used to convert ion counts to absolute concentrations (FIG. 1A).
Each inhibitor was tested independently for its ability to protect ITE from degradation in 0.5 milliliters of mouse plasma (FIG. 2A).

In the case of `CCN(C)C(=O)Oc1cccc([C@H](C)N(C)C)c1` [Rivastigmine, rivastigmine], the “ITE protected from degradation” value in series [1] (0.5 mL mouse plasma, at 120 minutes, 0.5 millimolar rivastigmine pre-incubated 60 minutes) is ~70%. Besides, the “inhibition of ITE degradation (in words, rank)” value (“inhibition of ITE degradation” for short) in series [1] is given as “best inhibitor of ITE degradation”.

`O=C(C(=O)c1ccccc1)c1ccccc1` [Benzil, benzil]: the “inhibition of ITE degradation” value in series [1] is recorded as “weakest single inhibitor”.

Consider `O=[N+]([O-])c1ccc(OP(=O)(O)Oc2ccc([N+](=O)[O-])cc2)cc1` [BNPP, bis-para-nitrophenylphosphate], for which the “inhibition of ITE degradation” value in series [1] is listed as “weaker inhibitors”. Consider `Nc1c2c(nc3ccccc13)CCCC2` [Tacrine, tacrine], for which, in series [1], the “inhibition of ITE degradation” value was “weaker inhibitors”. As to `COC(=O)c1csc(C(=O)c2c[nH]c3ccccc23)n1` [ITE, 2-(1 H-Indol-3-ylcarbonyl)-4-thiazolecarboxylic acid methyl ester], the ITE lost entry in series [2] (30 min) is “over 60%”. Further, the ITE degraded result in series [2] (60 min) is recorded as “about 90%”.
